Assay results: the NIST ThermoML archive (doi:10.1016/j.jct.2011.12.013)

Experiment: xn = mol fraction of the nth substance listed
Conditions: Liquid, Custom Made Vibrating Tube Densimeter

C=C1CC[C@H]2C[C@@H]1C2(C)C [(1S,5S)-6,6-dimethyl-2-methylenebicyclo[3.1.1]heptane] + C=C(C)[C@H]1CC=C(C)CC1
mass density [kg/m3]
Conditions | x2 = 0 | x2 = 0.11 | x2 = 0.2008 | x2 = 0.289 | x2 = 0.3961 | x2 = 0.4938 | x2 = 0.5906 | x2 = 0.6984 | x2 = 0.7993 | x2 = 0.9022
283.15 K, 20000 kPa | 891.3 | 888.1 | 885.4 | 882.8 | 879.6 | 876.8 | 873.9 | 870.9 | 868 | 864.5
283.15 K, 25000 kPa | 894.2 | 891 | 888.3 | 885.7 | 882.4 | 879.6 | 876.8 | 873.7 | 870.8 | 867.8
283.15 K, 30000 kPa | 897 | 893.9 | 891 | 888.4 | 885.2 | 882.5 | 879.7 | 876.5 | 873.6 | 870.4
283.15 K, 35000 kPa | 899.9 | 896.7 | 893.8 | 891.2 | 887.9 | 885.2 | 882.4 | 879.3 | 876.5 | 873.3
283.15 K, 40000 kPa | 902.6 | 899.3 | 896.3 | 894 | 890.6 | 887.8 | 885.1 | 881.9 | 879.2 | 876
298.15 K, 20000 kPa | 880.2 | 877 | 874.1 | 871.8 | 868.7 | 865.8 | 863 | 859.9 | 857.2 | 854.3
298.15 K, 25000 kPa | 883.3 | 880.1 | 877.2 | 874.9 | 871.8 | 868.9 | 866.2 | 863.1 | 860.2 | 857.3
298.15 K, 30000 kPa | 886.3 | 883.1 | 880.3 | 877.9 | 874.8 | 871.9 | 869.2 | 866.2 | 863.3 | 860.3
298.15 K, 35000 kPa | 889.3 | 886.1 | 883.5 | 881 | 877.7 | 874.9 | 872.3 | 869 | 866.5 | 863.4
298.15 K, 40000 kPa | 892.2 | 889 | 886.5 | 883.9 | 880.7 | 878 | 875.4 | 871.9 | 869 | 866.1
313.15 K, 20000 kPa | 869.3 | 866.1 | 863.5 | 860.9 | 857.8 | 854.9 | 852.4 | 849.3 | 846.5 | 843.7
313.15 K, 25000 kPa | 872.6 | 869.5 | 866.8 | 864.2 | 861.1 | 858.1 | 855.6 | 852.5 | 849.8 | 847
313.15 K, 30000 kPa | 875.7 | 872.6 | 870.1 | 867.5 | 864.3 | 861.4 | 858.7 | 855.7 | 852.9 | 849.9
313.15 K, 35000 kPa | 878.8 | 875.7 | 873.3 | 870.6 | 867.5 | 864.5 | 862 | 858.7 | 856.1 | 853
313.15 K, 40000 kPa | 882 | 878.8 | 876.7 | 873.8 | 870.7 | 867.8 | 865 | 861.8 | 859.1 | 856
328.15 K, 20000 kPa | 858.2 | 855.3 | 852.6 | 850.1 | 846.9 | 844.3 | 841.5 | 838.9 | 835.9 | 833.1
328.15 K, 25000 kPa | 861.7 | 858.7 | 856 | 853.5 | 850.4 | 847.7 | 844.9 | 842.1 | 839.4 | 836.4
328.15 K, 30000 kPa | 865.2 | 862.1 | 859.5 | 857 | 853.9 | 851.2 | 848.5 | 845.4 | 842.7 | 839.7
328.15 K, 35000 kPa | 868.7 | 865.5 | 862.7 | 860.3 | 857.2 | 854.6 | 851.9 | 848.7 | 846.1 | 843.1
328.15 K, 40000 kPa | 872.2 | 868.8 | 866.1 | 863.7 | 860.7 | 857.8 | 855.3 | 852 | 849.4 | 846.8
343.15 K, 20000 kPa | 847.7 | 844.7 | 842.1 | 839.6 | 836.7 | 834 | 831.4 | 828.4 | 825.7 | 822.7
343.15 K, 25000 kPa | 851.4 | 848.4 | 845.8 | 843.5 | 840.3 | 837.6 | 834.9 | 832 | 829.1 | 826.3
343.15 K, 30000 kPa | 855 | 852 | 849.4 | 846.9 | 843.9 | 841.2 | 838.6 | 835.6 | 832.9 | 830
343.15 K, 35000 kPa | 858.6 | 855.5 | 853.1 | 850.6 | 847.4 | 844.8 | 842.3 | 839.1 | 836.7 | 833.6
343.15 K, 40000 kPa | 862.1 | 859 | 856.7 | 854 | 850.8 | 848.3 | 845.6 | 842.4 | 840.1 | 837.1
358.15 K, 20000 kPa | 837 | 834 | 831.4 | 829.2 | 826.3 | 823.7 | 821 | 818.2 | 815.6 | 812.5
358.15 K, 25000 kPa | 840.9 | 838 | 835.4 | 833 | 830.1 | 827.4 | 824.9 | 822 | 819.4 | 816.7
358.15 K, 30000 kPa | 844.8 | 841.9 | 839.2 | 836.8 | 833.8 | 831.2 | 828.6 | 825.7 | 823 | 820
358.15 K, 35000 kPa | 848.7 | 845.7 | 843 | 840.6 | 837.5 | 834.9 | 832.4 | 829.4 | 826.8 | 823.9
358.15 K, 40000 kPa | 852.6 | 849.6 | 846.8 | 844.6 | 841.4 | 838.7 | 836.2 | 833.1 | 830.3 | 827.3
